What was measured:
[1] = biological target: T1, Phosphatidylinositol 4,5-bisphosphate 3-kinase catalytic subunit delta isoform (Homo sapiens, UniProt O00329); experiment: PI3Kδ Scintillation Proximity Assay
T1 sequence (O00329 whole entry): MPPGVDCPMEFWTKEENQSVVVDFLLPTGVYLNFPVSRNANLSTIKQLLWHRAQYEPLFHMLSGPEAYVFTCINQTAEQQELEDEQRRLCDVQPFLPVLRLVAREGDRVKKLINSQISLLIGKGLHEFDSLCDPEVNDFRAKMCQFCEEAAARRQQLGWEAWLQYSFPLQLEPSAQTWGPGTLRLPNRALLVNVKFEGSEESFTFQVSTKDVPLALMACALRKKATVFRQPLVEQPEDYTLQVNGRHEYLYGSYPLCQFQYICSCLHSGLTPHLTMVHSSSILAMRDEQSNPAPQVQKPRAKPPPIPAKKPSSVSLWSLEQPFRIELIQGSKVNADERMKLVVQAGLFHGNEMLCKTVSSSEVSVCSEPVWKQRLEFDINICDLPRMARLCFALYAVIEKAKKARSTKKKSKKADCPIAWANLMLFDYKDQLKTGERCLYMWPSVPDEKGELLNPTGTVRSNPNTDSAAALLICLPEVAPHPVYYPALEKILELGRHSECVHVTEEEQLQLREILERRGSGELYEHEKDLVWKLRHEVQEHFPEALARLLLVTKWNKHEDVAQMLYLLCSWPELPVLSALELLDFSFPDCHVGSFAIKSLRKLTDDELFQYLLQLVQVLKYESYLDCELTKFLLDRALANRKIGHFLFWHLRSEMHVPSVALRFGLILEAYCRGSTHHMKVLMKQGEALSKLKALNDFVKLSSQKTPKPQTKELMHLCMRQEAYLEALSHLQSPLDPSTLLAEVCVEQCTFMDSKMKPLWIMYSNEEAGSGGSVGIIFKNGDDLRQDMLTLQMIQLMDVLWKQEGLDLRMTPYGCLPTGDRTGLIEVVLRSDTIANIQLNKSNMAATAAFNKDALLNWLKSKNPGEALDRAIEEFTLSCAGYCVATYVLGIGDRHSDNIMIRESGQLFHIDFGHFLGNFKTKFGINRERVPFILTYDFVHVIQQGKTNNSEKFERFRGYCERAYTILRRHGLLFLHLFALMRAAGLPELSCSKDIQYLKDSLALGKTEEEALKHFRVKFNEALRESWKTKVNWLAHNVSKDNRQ
Description: The kinase reaction was conducted in polystyrene 384-well matrix white plate from Thermo Fisher Scientific in a final volume of 25 μL. Inhibitors were first diluted serially in DMSO and added to the plate wells before the addition of other reaction components. The final concentration of DMSO in the assay was 0.5%. The PI3K assays were carried out at room temperature in 20 mM MOPS, pH 6.7, 10 mM MgCl2, 5 mM DTT and CHAPS 0.03%. Reactions were initiated by the addition of ATP, the final reaction mixture consisted of 20 μM PIP2, 20 μM ATP, 0.2 μCi [γ-33P] ATP, 4 nM PI3Kδ. […] 25 mM EDTA, 400 µM ATP. The final concentration of SPA beads was 1.0 mg/mL. After the plate sealing, plates were shaken overnight at room temperature and centrifuged at 1800 rpm for 10 minutes, the radioactivity of the product was determined by scintillation counting on Topcount (Perkin-Elmer).

[2] = biological target: T1, Phosphatidylinositol 4,5-bisphosphate 3-kinase catalytic subunit delta isoform; experiment: PI3K Enzyme Assay
Description: Materials: Lipid kinase substrate, phosphoinositol-4,5-bisphosphate (PIP2), are purchased from Echelon Biosciences (Salt Lake City, Utah). PI3K isoforms α, β, δ and γ are purchased from Millipore (Bedford, Mass.). ATP, MgCl2, DTT, EDTA, MOPS and CHAPS are purchased from Sigma-Aldrich (St. Louis, Mo.).The kinase reaction are conducted in clear-bottom 96-well plate from Thermo Fisher Scientific in a final volume of 24 μL. Inhibitors are first diluted serially in DMSO and added to the plate wells before the addition of other reaction components. The final concentration of DMSO in the assay is 0.5%. The PI3K assays are carried out at room temperature in 20 mM MOPS, pH 6.7, 10 mM MgCl2, 5 mM DTT and CHAPS 0.03%. The reaction mixture is prepared containing 50 μM PIP2, kinase and varying concentration of inhibitors. Reactions are initiated by the addition of ATP containing 2.2 μCi [γ-33P]ATP to a final concentration of 1000 μM. The final concentration of PI3K isoforms α, β, δ and γ in the assay were 1.3, 9.4, 2.9 and 10.8 nM, respectively. Reactions are incubated for 180 minutes and terminated by the addition of 100 μL of 1 M potassium phosphate pH 8.0, 30 mM EDTA quench buffer. […] After the plate sealing, the radioactivity of the product is determined by scintillation counting on Topcount (Perkin-Elmer). […]

| SMILES | IC50 [1] [nM] | IC50 [2] [nM] |
| --- | --- | --- |
| CCOc1c(C(C)n2nc(C)c3c(N)ncnc32)cc(Cl)c(C#N)c1C1CN(c2ccc(-c3nnn(C)n3)nc2)C1 (stereo unspecified) [US11433071, Example 336] | < 10 |  |
| CCOc1c(C(C)n2nc(C)c3c(N)ncnc32)cc(Cl)c(C#N)c1C1CN(c2ccc(-c3cnn(C)n3)nc2)C1 (stereo unspecified) [US11433071, Example 337] | < 10 |  |
| CCOc1c(C(C)n2nc(C)c3c(N)ncnc32)cc(Cl)c(C#N)c1C1CN(N2CC(COC)C2)C1 (stereo unspecified) [US11433071, Example 341] | < 10 |  |
| CCOc1c(C(C)n2nc(C)c3c(N)ncnc32)cc(Cl)c(C#N)c1C1CN(N2CC(C#N)C2)C1 (stereo unspecified) [US11433071, Example 342] | < 10 |  |
| CCOc1c(C(C)n2nc(C)c3c(N)ncnc32)cc(C)c(C#N)c1C1CN(c2cnn(C)c2)C1 (stereo unspecified) [US11433071, Example 343] | < 10 |  |
| COc1c([C@@H](C)n2cc(C)c(=O)c3c(N)ncnc32)cc(Cl)c(C)c1-c1ccc(C[C@H](C)O)nc1 [US11433071, Example 361] |  | > 500 |
| COc1c([C@H](C)n2cc(C)c(=O)c3c(N)ncnc32)cc(Cl)c(C)c1-c1ccc(C[C@@H](C)O)nc1 [US11433071, Example 362] | < 10 |  |

The remaining lines, values ahead:

| IC50 [1] [nM] | IC50 [2] [nM] | SMILES |
| --- | --- | --- |
| < 10 |  | CCOc1c(C(C)n2nc(C)c3c(N)ncnc32)cc(Cl)c(C#N)c1C1CN(c2cncc(C#N)c2)C1 (stereo unspecified) [US11433071, Example 330] |
| < 10 |  | CCOc1c(C(C)n2nc(C)c3c(N)ncnc32)cc(Cl)c(C#N)c1C1CN(c2cncc(C(=O)N(C)C)c2)C1 (stereo unspecified) [US11433071, Example 331] |
| < 10 |  | CCOc1c(C(C)n2nc(C)c3c(N)ncnc32)cc(Cl)c(C#N)c1C1CN(c2ccnc(C(=O)N(C)C)c2)C1 (stereo unspecified) [US11433071, Example 334] |
| < 10 |  | CCOc1c(C(C)n2nc(C)c3c(N)ncnc32)cc(C)c(C#N)c1C1CN(c2cncc(S(C)(=O)=O)c2)C1 (stereo unspecified) [US11433071, Example 335] |

Source: BindingDB's records for patent US11433071 (Incyte Corporation; Incyte Holdings Corporation, 2022)
